# Experimental data as given in BindingDB's records for doi:10.1021/jm000022w (Cor Therapeutics, 2000).
# Starred links: 1 amine or outer side, 2 acyl side, 3 side chain; linkers in the order of their positions; H or OH if unused. Positions of bridges follow the written chain, without caps; N, C: chain ends. Non-standard residues stand in square brackets, D forms with d. Residues, ends and D or L forms follow the SMILES beside them. Cys(O)(CH2CO) = O=C([C@H](C[S+]([O-])CC(=O)[*:3])N[*:1])[*:2]; NMeR = CN[C@@H](CCCNC(=N)N)C(=O)O; 3Amb = NCc1cccc(C(=O)O)c1; dAbu = CC[C@@H](N)C(=O)O
# Tests used:
# [1] = In vitro inhibition of gel filtered platelet aggregation induced by ADP.
# [2] = Inhibition of platelet aggregation
# [3] = Inhibition of platelet aggregation; remark: listed apart in the source
# [4] = Inhibition of human platelet aggregation
# [5] = Inhibition of human platelet aggregation; remark: listed apart in the source
# [6] = Inhibition of […] and platelet aggregation in human platelet rich plasma
SMILES,IC50 [1],other results
"Cc1ccc(S(=O)(=O)N[C@@H](CCC(=O)N2CCC3(CC2)C(=O)N(c2ccc(C(=N)N)cc2)C(=O)N3C)C(=O)O)cc1 [5-[3-(4-Carbamimidoyl-phenyl)-1-methyl-2,4-dioxo-1,3,8-triaza-spiro[4.5]dec-8-yl]-5-oxo-2-(toluene-4-sulfonylamino)-pentanoic acid]",59 nM,
[H]/N=C(/N)c1ccc(C(=O)N[C@@H](Cc2ccc(O)cc2)C(=O)N2CCC(OCC(=O)O)CC2)cc1,,IC50 [2]: 30 nM
O=C(NC[C@H](NS(=O)(=O)c1ccccc1)C(=O)O)c1cc2cc(OCC3CCNCC3)ccc2[nH]1 [2-Benzenesulfonylamino-3-{[5-(piperidin-4-ylmethoxy)-1H-indole-2-carbonyl]-amino}-propionic acid(L-756568)],13 nM,
"Cc1c(C(=O)NCCC(=O)O)s/c(=N\C(=O)c2ccc(C(=N)N3CCC4(CC3)OCCO4)cc2)n1C [3-[(2-{4-[(1,4-Dioxa-8-aza-spiro[4.5]dec-8-yl)-imino-methyl]-benzoylimino}-3,4-dimethyl-2,3-dihydro-thiazole-5-carbonyl)-amino]-propionic acid (PSA0613)]",,IC50 [3]: 22 nM
"Cc1noc(C)c1S(=O)(=O)N[C@@H](CNC(=O)C1CCC2(CC1)CCN(c1ccncc1)CC2)C(=O)O [2-(3,5-Dimethyl-isoxazole-4-sulfonylamino)-3-[(3-pyridin-4-yl-3-aza-spiro[5.5]undecane-9-carbonyl)-amino]-propionic acid]",44 nM,
N=C(N)c1ccc(C(=O)Nc2ccc3c(c2)CCC(CC(=O)O)O3)cc1 (stereo not drawn) [[6-(4-Carbamimidoyl-benzoylamino)-chroman-2-yl]-acetic acid],190 nM,
CCOC(=O)CCN(c1ncc(-c2ccc(C(N)=NC(=O)OCC)cc2)s1)C1CCN(CC(=O)OCC)CC1 [3-[{5-[4-(Ethoxycarbonylamino-imino-methyl)-phenyl]-thiazol-2-yl}-(1-ethoxycarbonylmethyl-piperidin-4-yl)-amino]-propionic acid ethyl ester (SR121787)],,IC50 [3]: > 90 nM
"CCCCS(=O)(=O)NC(CC#Cc1ccc2nc(C)n(CCC3CCNCC3)c(=O)c2c1)C(=O)O (stereo not drawn) [2-(Butane-1-sulfonylamino)-5-[2-methyl-4-oxo-3-(2-piperidin-4-yl-ethyl)-3,4-dihydro-quinazolin-6-yl]-pent-4-ynoic acid]",43 nM,
[H]/N=C(/N)c1ccc(C2=NO[C@@H](CC(=O)NC[C@H](NC(=O)OCCCC)C(=O)O)C2)cc1,60 nM,
CC[C@H]1NC(=O)c2cccc(c2)CNC(=O)[C@H](CC(=O)O)NC(=O)CNC(=O)[C@H](CCCN=C(N)N)N(C)C1=O [DMP-728] (cyclo([NMeR]GD[3Amb][dAbu])),,IC50 [4]: 46 nM
"CCCCS(=O)(=O)NC(CC#Cc1ccc2[nH]c(=O)n(CCC3CCNCC3)c(=O)c2c1)C(=O)O (stereo not drawn) [2-(Butane-1-sulfonylamino)-5-[2,4-dioxo-3-(2-piperidin-4-yl-ethyl)-1,2,3,4-tetrahydro-quinazolin-6-yl]-pent-4-ynoic acid]",37 nM,
"N=C(N)NCCC[C@@H]1NC(=O)[C@@H](Cc2ccc(O)cc2)NC(=O)C[S+]([O-])C[C@@H](C(=O)O)NC(=O)[C@H](CC(=O)O)NC(=O)CNC1=O (stereo partly drawn) [6-Carboxymethyl-12-(3-guanidino-propyl)-15-(4-hydroxy-benzyl)-1,5,8,11,14,17-hexaoxo-1lambda*4*-thia-4,7,10,13,16-pentaaza-cyclooctadecane-3-carboxylic acid (G4120)] ([dY]RGD[Cys(O)(CH2CO)]-OH; lactam N-5)",,IC50 [2]: 150 nM
C#C[C@H](CC(=O)O)NC(=O)CN1CCc2ccc(N3CCNCC3)cc2C1=O [L-767679],12 nM,
CN(CC(=O)c1ccc(OCC(=O)O)c(OCC(=O)O)c1)C(=O)c1ccc(C(=N)N)cc1 [(4-{2-[(4-Carbamimidoyl-benzoyl)-methyl-amino]-acetyl}-2-carboxymethoxy-phenoxy)-acetic acid],,IC50 [2]: 70 nM
CCOC(=O)CN1CCN(C[C@@H]2CN(c3ccc(C(N)=NC(=O)OC)cc3)C(=O)O2)CC1 [Gantofiban],,IC50 [5]: 8 nM
N=C(c1ccc(C(=O)Nc2ccc3c(c2)C[C@@H](CC(=O)O)CO3)cc1)N1CCOCC1 [{(S)-6-[4-(Imino-morpholin-4-yl-methyl)-benzoylamino]-chroman-3-yl}-acetic acid],35 nM,
[H]/N=C(/N)c1ccc(N2CCN(C3CCN(CC(=O)O)CC3)CC2)cc1 [{4-[4-(4-Carbamimidoyl-phenyl)-piperazin-1-yl]-piperidin-1-yl}-acetic acid (GR 144053)],,IC50 [6]: 59 nM
"CCCCS(=O)(=O)N[C@@H](CNC(=O)c1cc2n(n1)CCN(CCC1CCNCC1)C2=O)C(=O)O [(S)-2-(Butane-1-sulfonylamino)-3-{[4-oxo-5-(2-piperidin-4-yl-ethyl)-4,5,6,7-tetrahydro-pyrazolo[1,5-a]pyrazine-2-carbonyl]-amino}-propionic acid]",9 nM,
"O=C(NC[C@H](NS(=O)(=O)c1ccccc1)C(=O)O)c1cc2c(s1)CCN(CCC1CCNCC1)C2=O [(S)-2-Benzenesulfonylamino-3-{[4-oxo-5-(2-piperidin-4-yl-ethyl)-4,5,6,7-tetrahydro-thieno[3,2-c]pyridine-2-carbonyl]-amino}-propionic acid]",8 nM,
"Cc1noc(C)c1S(=O)(=O)N[C@@H](CCC(=O)N1CCC2(CC1)CCN(c1ccncc1)CC2)C(=O)O [2-(3,5-Dimethyl-isoxazole-4-sulfonylamino)-5-oxo-5-(9-pyridin-4-yl-3,9-diaza-spiro[5.5]undec-3-yl)-pentanoic acid]",21 nM,
"N=C(N)c1ccc(C(=O)Nc2ccc3c(c2)CCC(CC(=O)O)C3=O)cc1 (stereo not drawn) [[6-(4-Carbamimidoyl-benzoylamino)-1-oxo-1,2,3,4-tetrahydro-naphthalen-2-yl]-acetic acid]",60 nM,
N=C(N)c1ccc(C(=O)Nc2cccc(C(=O)NCCC(=O)O)c2)cc1,,IC50 [2]: 200 nM
CC(C)[C@H](NC(=O)[C@H](CC(=O)O)NC(=O)CCNC(=O)c1ccc(C(=N)N)cc1)C(=O)O [2-{2-[3-(4-Carbamimidoyl-benzoylamino)-propionylamino]-3-carboxy-propionylamino}-3-methyl-butyric acid (Ro 43-5054)],,IC50 [2]: 30 nM
Cc1ccc(S(=O)(=O)N[C@@H](CNC(=O)c2ccc3oc(-c4ccc(C(=N)N)cc4)nc3c2)C(=O)O)cc1 [(S)-3-{[2-(4-Carbamimidoyl-phenyl)-benzooxazole-5-carbonyl]-amino}-2-(toluene-4-sulfonylamino)-propionic acid],10 nM,
N=C(N)c1ccc(N2CCN(c3ccc(OCC(=O)O)cc3)CC2)cc1 [{4-[4-(4-Carbamimidoyl-phenyl)-piperazin-1-yl]-phenoxy}-acetic acid],,IC50 [6]: 20 nM
C[C@@H](COc1ccc(N2CCN(c3ccncc3)CC2)cc1)CC(=O)O [3-Methyl-4-[4-(4-pyridin-4-yl-piperazin-1-yl)-phenoxy]-butyric acid (ZD 2486)],,IC50 [6]: 50 nM
CC(C)[C@H](NC(=O)[C@H](CC(=O)O)NC(=O)CNC(=O)Cc1ccc(C(=N)N)cc1)C(=O)O,,IC50 [2]: 300 nM
"CCCCOC(=O)N[C@@H](CNC(=O)C[C@H]1CC(c2ccc(C(=N)N)cc2)=NO1)C(=O)OC [2-Butoxycarbonylamino-3-{2-[3-(4-carbamimidoyl-phenyl)-4,5-dihydro-isoxazol-5-yl]-acetylamino}-propionic acid methyl ester(DMP 754(roxifiban))]",,IC50 [5]: 60 nM
